# Legend:
# Estrogen receptor [1] = target: T1, Estrogen receptor (Homo sapiens, UniProt P03372)
# T1 sequence (P03372 whole entry): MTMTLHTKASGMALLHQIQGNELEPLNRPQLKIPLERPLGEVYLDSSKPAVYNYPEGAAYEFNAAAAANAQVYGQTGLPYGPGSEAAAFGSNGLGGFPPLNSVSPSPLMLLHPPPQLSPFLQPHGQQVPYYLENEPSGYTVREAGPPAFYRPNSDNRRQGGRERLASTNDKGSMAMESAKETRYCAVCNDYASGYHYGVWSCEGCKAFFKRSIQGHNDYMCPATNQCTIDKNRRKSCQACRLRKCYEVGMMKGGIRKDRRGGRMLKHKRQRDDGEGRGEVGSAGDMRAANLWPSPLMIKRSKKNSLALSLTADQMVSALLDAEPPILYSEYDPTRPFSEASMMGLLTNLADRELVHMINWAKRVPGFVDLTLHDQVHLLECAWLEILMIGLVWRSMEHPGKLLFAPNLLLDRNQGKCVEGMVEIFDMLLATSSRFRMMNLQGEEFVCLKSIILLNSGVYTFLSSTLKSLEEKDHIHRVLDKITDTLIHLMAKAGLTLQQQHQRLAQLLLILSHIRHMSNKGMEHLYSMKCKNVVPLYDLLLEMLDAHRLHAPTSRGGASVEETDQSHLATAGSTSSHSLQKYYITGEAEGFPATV
# Description: (§1) Agonist activity at human N-terminal His6-tagged ERalpha receptor LBD expressed in Escherichia coli BL21 (DE3) assessed as induction of SRC1 peptide recruitment after 1 hr by fluorescence polarization assay
# Estrogen receptor beta [2] = target: T2, Estrogen receptor beta (Homo sapiens, UniProt Q92731)
# T2 sequence (Q92731 whole entry): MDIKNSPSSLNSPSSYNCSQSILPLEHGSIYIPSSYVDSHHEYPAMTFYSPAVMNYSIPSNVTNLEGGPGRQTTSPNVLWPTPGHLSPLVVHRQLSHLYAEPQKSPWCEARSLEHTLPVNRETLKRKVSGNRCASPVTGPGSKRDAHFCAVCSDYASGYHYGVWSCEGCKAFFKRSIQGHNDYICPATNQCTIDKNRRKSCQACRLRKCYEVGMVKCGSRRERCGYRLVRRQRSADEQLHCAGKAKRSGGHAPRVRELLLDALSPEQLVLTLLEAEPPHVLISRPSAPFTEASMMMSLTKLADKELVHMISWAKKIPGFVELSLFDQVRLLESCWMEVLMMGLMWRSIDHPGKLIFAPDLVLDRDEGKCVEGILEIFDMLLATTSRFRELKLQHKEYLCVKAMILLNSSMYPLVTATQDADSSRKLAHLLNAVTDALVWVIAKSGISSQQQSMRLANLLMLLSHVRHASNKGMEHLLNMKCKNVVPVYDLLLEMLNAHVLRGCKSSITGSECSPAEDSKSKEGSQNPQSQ
# Description: (§2) Agonist activity at human N-terminal His6-tagged ERbeta receptor LBD expressed in Escherichia coli BL21 (DE3) assessed as induction of SRC1 peptide recruitment after 1 hr by fluorescence polarization assay
# Estrogen receptor [3] = target: T1, Estrogen receptor; remark: listed apart in the source
# Description: as §1
# Estrogen receptor beta [4] = target: T2, Estrogen receptor beta; remark: listed apart in the source
# Description: as §2
# Estrogen receptor beta [5] = target: T2, Estrogen receptor beta; assay: Transcriptional activation of human ERbeta receptor transfected in human U2OS cells assessed as increase of luciferase activity by estrogen response element-luciferase reporter gene assay; format: cell-based
# Estrogen receptor beta [6] = target: T2, Estrogen receptor beta; assay: Transcriptional activation of human ERbeta receptor transfected in human U2OS cells assessed as increase of luciferase activity by estrogen response element-luciferase reporter gene assay relative to control; format: cell-based
# [7] = target: T3, Estrogen receptor (Homo sapiens) (UniProt P03372); assay: Transcriptional activation of human ERalpha receptor transfected in human U2OS cells assessed as increase of luciferase activity by estrogen response element-luciferase reporter gene assay relative to control; format: cell-based
# T3 sequence (whole entry): T1 sequence (P03372 whole entry)
# Estrogen receptor [8] = target: T1, Estrogen receptor; assay: Transcriptional activation of human ERalpha receptor transfected in human U2OS cells assessed as increase of luciferase activity by estrogen response element-luciferase reporter gene assay; format: cell-based
SMILES,EC50 (Estrogen receptor [1]) [µM],EC50 (Estrogen receptor beta [2]) [µM],EC50 (Estrogen receptor [3]),also measured
O=C(N1CCc2cc(O)ccc2C1)C(Cl)(Cl)Cl,6.2,3.2,,
CC(=O)N1CCc2ccccc2C1,,,Not Active,EC50 (Estrogen receptor beta [4]): Not Active
Br.Oc1cc2c(cc1O)CNCC2,,,Not Active,
Br.Oc1ccc2c(c1)CCNC2,,,Not Active,
O=C(N1CCc2cc(O)ccc2C1)C(F)(F)F,5.2,0.9,,
O=C(N1CCc2ccccc2C1)C(F)(F)F,,,Not Active,EC50 (Estrogen receptor beta [4]): Not Active
O=S(=O)(c1cccc2ccccc12)N1CCc2cc(O)ccc2C1,700,60,,
CS(=O)(=O)N1CCc2ccccc2C1,,,Not Active,EC50 (Estrogen receptor beta [4]): Not Active
CC(C)(C)OC(=O)N1CCc2cc(O)ccc2C1,,1.1,,
Br.Oc1ccc2c(c1)CNCC2,,,Not Active,
CC(=O)N1CCc2cc(O)ccc2C1,,,Not Active,EC50 (Estrogen receptor beta [4]): Not Active
O=S(=O)(c1cccc2ccccc12)N1CCc2ccc(O)cc2C1,600,30,,

# Second part, led by results:
EC50 (Estrogen receptor [1]) [µM],EC50 (Estrogen receptor beta [2]) [µM],SMILES,EC50 (Estrogen receptor [3]),also measured
2.3,1.6,O=C(N1CCc2cc(O)ccc2C1)C(F)(F)Cl,,
20,3.8,O=C(N1CCc2ccc(O)cc2C1)C(F)(F)F,,
340,227,COc1ccc2c(c1)CCN(C(=O)C(F)(F)F)C2,,
3,0.6,O=S(=O)(N1CCc2cc(O)ccc2C1)C(F)(F)F,,EC50 (Estrogen receptor beta [5]): 0.31 µM; fold change (FC) (Estrogen receptor beta [6]): 7; fold change (FC) [7]: 33; EC50 (Estrogen receptor [8]): 1.87 µM
170,20,CS(=O)(=O)N1CCc2cc(O)ccc2C1,,
,1,O=S(=O)(c1ccccc1)N1CCc2cc(O)ccc2C1,,
